Data published in PubChem BioAssay (NCI).
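Five concentrations, 48 hours, 96-well plates. Definition used: TGI = concentration required for complete inhibition of growth.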

Assays:
Experiment in all cases: inhibition of tumour cell growth, NCI panel, 48 h
U251 CNS = test system: U251 CNS
HOP-62 NSCLC = test system: HOP-62 NSCLC
MDA-MB-231 breast = test system: MDA-MB-231 breast
HL-60(TB) leukemia = test system: HL-60(TB) leukemia
K-562 leukemia = test system: K-562 leukemia
CCRF-CEM leukemia = test system: CCRF-CEM leukemia

O=C(NCCCCCCCCNC(=O)c1cc(-c2ccccc2)nc2ccccc12)c1cc(-c2ccccc2)nc2ccccc12
TGI (U251 CNS): > 100 µM | TGI (HOP-62 NSCLC): > 100 µM | TGI (MDA-MB-231 breast): > 100 µM | TGI (HL-60(TB) leukemia): > 100 µM | TGI (K-562 leukemia): > 100 µM | TGI (CCRF-CEM leukemia): > 100 µM

COc1nc2c(c(=O)n1C)N(C(C)=O)C1C(N2)OCC(OC(C)=O)C1OC(C)=O (stereo not given)
TGI (U251 CNS): > 10 µM | TGI (HOP-62 NSCLC): > 10 µM | TGI (MDA-MB-231 breast): > 10 µM | TGI (HL-60(TB) leukemia): > 10 µM | TGI (K-562 leukemia): > 10 µM | TGI (CCRF-CEM leukemia): > 10 µM

COc1ccc(N2C(=O)C3c4[nH]c5ccc(C)cc5c4C4CCC(C)CC4C3C2=O)cc1 (stereo not given)
TGI (U251 CNS): > 100 µM | TGI (MDA-MB-231 breast): > 100 µM | TGI (K-562 leukemia): > 100 µM | TGI (CCRF-CEM leukemia): > 100 µM

CC(C)[C@@H]1NC(=O)[C@H]2N=C(O[C@@H]2C)[C@@H]2CCCN2C(=O)[C@H](Cc2ccccc2)NC(=O)[C@@H]2CSC(=N2)[C@@H](Cc2ccccc2)NC(=O)[C@@H]2CSC1=N2
TGI (U251 CNS): > 50 µM | TGI (HOP-62 NSCLC): > 50 µM | TGI (MDA-MB-231 breast): > 50 µM | TGI (HL-60(TB) leukemia): 41.3 µM | TGI (K-562 leukemia): > 50 µM | TGI (CCRF-CEM leukemia): > 50 µM

COC(=O)C1CCC(=O)N1CN(C(C)=O)c1ccccc1 (stereo not given)
TGI (U251 CNS): > 100 µM | TGI (HOP-62 NSCLC): > 100 µM | TGI (MDA-MB-231 breast): > 100 µM | TGI (HL-60(TB) leukemia): > 100 µM | TGI (K-562 leukemia): > 100 µM | TGI (CCRF-CEM leukemia): > 100 µM

Cc1ccc(-c2nc3ccc(Cl)cc3[nH]2)cc1
TGI (U251 CNS): > 100 µM | TGI (HOP-62 NSCLC): > 100 µM | TGI (MDA-MB-231 breast): > 100 µM | TGI (HL-60(TB) leukemia): > 100 µM | TGI (K-562 leukemia): > 100 µM | TGI (CCRF-CEM leukemia): > 100 µM

CC1(CCC2C=CCC2)CCCNC1=S (stereo not given)
TGI (U251 CNS): > 10 µM | TGI (HOP-62 NSCLC): > 10 µM | TGI (MDA-MB-231 breast): > 10 µM | TGI (HL-60(TB) leukemia): > 10 µM | TGI (K-562 leukemia): > 10 µM | TGI (CCRF-CEM leukemia): > 10 µM

C=Cc1c(C)c(OC)cc2c1Oc1ccc(OC)c(C)c1CC2
TGI (U251 CNS): > 100 µM | TGI (HOP-62 NSCLC): > 100 µM | TGI (MDA-MB-231 breast): > 100 µM | TGI (HL-60(TB) leukemia): > 100 µM | TGI (K-562 leukemia): > 100 µM | TGI (CCRF-CEM leukemia): > 100 µM

CCC1C(c2cc(OC)c(OC)c(OC)c2)c2cc3c(cc2OC1N1CCCC1)OCO3 (stereo not given)
TGI (U251 CNS): 11.7 µM | TGI (HOP-62 NSCLC): 15.9 µM | TGI (MDA-MB-231 breast): 20.5 µM | TGI (HL-60(TB) leukemia): > 23.3 µM | TGI (K-562 leukemia): 8.62 µM | TGI (CCRF-CEM leukemia): 11.9 µM

O=c1oc2ccccc2c(Nc2ccc3c(c2)S(=O)(=O)c2ccccc2O3)c1[N+](=O)[O-]
TGI (U251 CNS): 42.1 µM | TGI (HOP-62 NSCLC): > 100 µM | TGI (MDA-MB-231 breast): 67.9 µM | TGI (HL-60(TB) leukemia): 59.2 µM | TGI (K-562 leukemia): 71.3 µM | TGI (CCRF-CEM leukemia): 83.5 µM

COc1cc(/C=C2/CCS(=O)(=O)c3ccc(C)cc3C2=O)cc(OC)c1OC
TGI (U251 CNS): > 31 µM | TGI (HOP-62 NSCLC): 23.1 µM | TGI (MDA-MB-231 breast): 11.2 µM | TGI (K-562 leukemia): 4.06 µM | TGI (CCRF-CEM leukemia): > 100 µM

Cc1n[nH]c(=O)c2cc(-c3ccccc3)[nH]c12
TGI (U251 CNS): > 100 µM | TGI (HOP-62 NSCLC): > 100 µM | TGI (MDA-MB-231 breast): > 100 µM | TGI (HL-60(TB) leukemia): > 100 µM | TGI (K-562 leukemia): > 100 µM | TGI (CCRF-CEM leukemia): > 100 µM

COC(=O)[C@@H]1CN(C(=O)CCc2ccccc2)C(=O)N1C(=O)OCc1ccccc1
TGI (U251 CNS): > 100 µM | TGI (HOP-62 NSCLC): > 100 µM | TGI (MDA-MB-231 breast): > 100 µM | TGI (HL-60(TB) leukemia): > 100 µM | TGI (K-562 leukemia): > 100 µM | TGI (CCRF-CEM leukemia): > 100 µM

COc1ccccc1NC(=O)/C(Cc1nc2ccc([N+](=O)[O-])cc2[nH]c1=O)=N\NC(=O)C[N+](C)(C)C
TGI (U251 CNS): > 100 µM | TGI (HOP-62 NSCLC): > 100 µM | TGI (MDA-MB-231 breast): > 100 µM | TGI (HL-60(TB) leukemia): 93.1 µM | TGI (CCRF-CEM leukemia): 94.5 µM

COc1ccc(NC(=O)/C(=N\NC(=O)C[n+]2ccccc2)c2c(O)c3ccc(O)cc3oc2=O)c([N+](=O)[O-])c1
TGI (U251 CNS): > 100 µM | TGI (MDA-MB-231 breast): > 100 µM | TGI (HL-60(TB) leukemia): > 100 µM | TGI (K-562 leukemia): > 100 µM | TGI (CCRF-CEM leukemia): > 100 µM
